Data published in article PMC12136037, “Type II kinase inhibitors that target Parkinson’s disease–associated LRRK2” (Science Advances, 2025).

Columns and labels:
Test in all cases: DSF 100 kinase selectivity screen;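 note: compound tested at 20 µM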
Assay type in all cases: binding
[1] = biological target: T1, ~100 representative kinases (Homo sapiens, UniProt P49759); conditions: Protein CLK1; average of three replicates
T1 construct: Recombinant protein kinase domains with a concentration of 2 μM
T1 sequence (P49759 whole entry, the tested form may be a part): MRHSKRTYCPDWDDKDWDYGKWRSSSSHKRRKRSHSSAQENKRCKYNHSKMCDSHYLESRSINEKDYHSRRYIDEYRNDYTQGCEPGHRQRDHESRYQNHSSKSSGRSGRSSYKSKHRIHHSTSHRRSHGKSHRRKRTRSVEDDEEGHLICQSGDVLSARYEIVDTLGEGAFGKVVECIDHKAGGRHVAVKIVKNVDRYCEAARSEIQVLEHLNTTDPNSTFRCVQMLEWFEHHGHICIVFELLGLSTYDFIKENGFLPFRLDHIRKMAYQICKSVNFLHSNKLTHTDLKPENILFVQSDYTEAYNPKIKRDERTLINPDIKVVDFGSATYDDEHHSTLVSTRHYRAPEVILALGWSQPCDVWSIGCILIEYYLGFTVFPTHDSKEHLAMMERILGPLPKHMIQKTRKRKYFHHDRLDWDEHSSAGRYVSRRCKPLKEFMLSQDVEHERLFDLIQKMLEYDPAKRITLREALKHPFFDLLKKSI
Procedure, shortened: (§1)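 Each kinase domain, at 2 μM, is mixed with 20 μM test compound and SYPRO Orange in Hepes (20 mM, pH 7.5) with 500 mM NaCl. Temperature is then raised at 3°C/min and fluorescence-monitored unfolding yields the melting temperature change, ΔTm in degrees Celsius.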

[2] = biological target: T2, ~100 representative kinases (Homo sapiens, UniProt O14936); conditions: Protein CASK; average of three replicates
T2 construct: Recombinant protein kinase domains with a concentration of 2 μM
T2 sequence (O14936 1-926): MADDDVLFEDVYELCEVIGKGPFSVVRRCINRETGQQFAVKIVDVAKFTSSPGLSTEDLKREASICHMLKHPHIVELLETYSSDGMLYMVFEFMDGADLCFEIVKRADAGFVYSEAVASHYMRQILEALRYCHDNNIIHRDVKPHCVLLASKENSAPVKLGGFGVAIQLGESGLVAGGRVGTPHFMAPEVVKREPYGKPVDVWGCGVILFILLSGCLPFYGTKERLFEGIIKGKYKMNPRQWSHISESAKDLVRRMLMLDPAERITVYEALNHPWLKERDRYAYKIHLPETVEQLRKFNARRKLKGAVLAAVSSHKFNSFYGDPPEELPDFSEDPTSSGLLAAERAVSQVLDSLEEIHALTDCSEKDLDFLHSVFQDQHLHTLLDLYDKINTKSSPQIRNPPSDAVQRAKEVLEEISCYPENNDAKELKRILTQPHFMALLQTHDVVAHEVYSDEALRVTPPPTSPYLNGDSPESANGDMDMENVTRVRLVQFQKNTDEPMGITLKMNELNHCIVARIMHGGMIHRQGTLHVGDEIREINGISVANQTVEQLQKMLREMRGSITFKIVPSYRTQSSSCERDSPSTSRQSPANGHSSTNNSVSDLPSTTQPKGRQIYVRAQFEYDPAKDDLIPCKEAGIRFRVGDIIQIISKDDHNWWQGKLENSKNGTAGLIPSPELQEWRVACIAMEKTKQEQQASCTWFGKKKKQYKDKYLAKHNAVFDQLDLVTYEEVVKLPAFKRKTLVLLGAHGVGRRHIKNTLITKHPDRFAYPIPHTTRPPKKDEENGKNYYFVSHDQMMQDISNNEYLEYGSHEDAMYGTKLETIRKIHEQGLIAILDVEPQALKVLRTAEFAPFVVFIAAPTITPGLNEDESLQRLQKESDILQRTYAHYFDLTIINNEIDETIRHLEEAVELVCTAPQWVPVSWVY
Procedure, shortened: as §1

[3] = biological target: T3, ~100 representative kinases (Homo sapiens, UniProt P22830); conditions: protein FECH; average of three replicates
T3 construct: Recombinant protein kinase domains with a concentration of 2 μM
T3 sequence (P22830 55-423): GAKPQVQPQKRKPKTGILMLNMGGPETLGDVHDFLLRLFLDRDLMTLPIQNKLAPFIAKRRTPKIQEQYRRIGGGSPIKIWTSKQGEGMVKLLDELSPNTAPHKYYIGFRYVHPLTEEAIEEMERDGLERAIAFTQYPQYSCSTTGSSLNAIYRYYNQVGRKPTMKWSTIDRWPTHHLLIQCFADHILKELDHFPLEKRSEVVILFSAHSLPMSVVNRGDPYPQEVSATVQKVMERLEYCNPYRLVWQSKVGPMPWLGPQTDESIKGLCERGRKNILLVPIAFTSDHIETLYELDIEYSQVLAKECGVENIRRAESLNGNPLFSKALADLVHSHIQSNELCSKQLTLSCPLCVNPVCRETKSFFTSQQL
Procedure, shortened: as §1

[4] = biological target: T4, ~100 representative kinases (Homo sapiens, UniProt Q96PY6); conditions: protein NEK1; average of three replicates
T4 construct: Recombinant protein kinase domains with a concentration of 2 μM
T4 sequence (Q96PY6 1-1258): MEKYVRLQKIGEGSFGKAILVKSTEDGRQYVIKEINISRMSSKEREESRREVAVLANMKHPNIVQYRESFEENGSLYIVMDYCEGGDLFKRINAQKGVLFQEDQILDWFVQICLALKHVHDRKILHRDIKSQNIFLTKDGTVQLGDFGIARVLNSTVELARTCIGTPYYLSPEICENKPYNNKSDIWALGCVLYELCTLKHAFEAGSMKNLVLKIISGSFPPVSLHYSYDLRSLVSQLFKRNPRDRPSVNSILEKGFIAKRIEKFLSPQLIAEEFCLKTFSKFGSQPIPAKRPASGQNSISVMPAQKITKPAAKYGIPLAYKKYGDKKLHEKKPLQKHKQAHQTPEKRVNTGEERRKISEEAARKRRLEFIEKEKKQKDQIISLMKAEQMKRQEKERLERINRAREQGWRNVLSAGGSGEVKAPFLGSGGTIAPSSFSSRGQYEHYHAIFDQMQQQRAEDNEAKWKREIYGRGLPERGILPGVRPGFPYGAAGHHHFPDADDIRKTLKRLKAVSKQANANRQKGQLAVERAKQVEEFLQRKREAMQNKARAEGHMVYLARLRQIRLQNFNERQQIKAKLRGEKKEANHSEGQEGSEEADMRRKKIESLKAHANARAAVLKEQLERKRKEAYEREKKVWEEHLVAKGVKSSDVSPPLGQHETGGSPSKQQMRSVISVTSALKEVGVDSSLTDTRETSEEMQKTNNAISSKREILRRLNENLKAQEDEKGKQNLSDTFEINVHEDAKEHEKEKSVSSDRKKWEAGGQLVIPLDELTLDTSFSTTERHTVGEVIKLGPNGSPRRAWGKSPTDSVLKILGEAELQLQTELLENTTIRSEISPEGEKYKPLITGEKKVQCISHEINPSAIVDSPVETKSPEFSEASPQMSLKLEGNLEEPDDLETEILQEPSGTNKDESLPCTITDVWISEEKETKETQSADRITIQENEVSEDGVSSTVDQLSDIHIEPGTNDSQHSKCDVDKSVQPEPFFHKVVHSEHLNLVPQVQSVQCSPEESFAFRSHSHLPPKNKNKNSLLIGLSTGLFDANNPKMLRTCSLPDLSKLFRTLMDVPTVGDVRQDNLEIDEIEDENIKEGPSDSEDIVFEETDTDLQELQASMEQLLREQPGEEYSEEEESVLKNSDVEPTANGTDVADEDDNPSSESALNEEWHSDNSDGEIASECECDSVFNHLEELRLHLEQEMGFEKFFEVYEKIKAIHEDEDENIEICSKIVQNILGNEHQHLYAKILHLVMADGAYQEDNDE
Procedure, shortened: as §1

[5] = biological target: T5, ~100 representative kinases (Homo sapiens, UniProt O15075); conditions: Protein DCAMKL1; average of three replicates
T5 construct: Recombinant protein kinase domains with a concentration of 2 μM
T5 sequence (O15075 whole entry, the tested form may be a part): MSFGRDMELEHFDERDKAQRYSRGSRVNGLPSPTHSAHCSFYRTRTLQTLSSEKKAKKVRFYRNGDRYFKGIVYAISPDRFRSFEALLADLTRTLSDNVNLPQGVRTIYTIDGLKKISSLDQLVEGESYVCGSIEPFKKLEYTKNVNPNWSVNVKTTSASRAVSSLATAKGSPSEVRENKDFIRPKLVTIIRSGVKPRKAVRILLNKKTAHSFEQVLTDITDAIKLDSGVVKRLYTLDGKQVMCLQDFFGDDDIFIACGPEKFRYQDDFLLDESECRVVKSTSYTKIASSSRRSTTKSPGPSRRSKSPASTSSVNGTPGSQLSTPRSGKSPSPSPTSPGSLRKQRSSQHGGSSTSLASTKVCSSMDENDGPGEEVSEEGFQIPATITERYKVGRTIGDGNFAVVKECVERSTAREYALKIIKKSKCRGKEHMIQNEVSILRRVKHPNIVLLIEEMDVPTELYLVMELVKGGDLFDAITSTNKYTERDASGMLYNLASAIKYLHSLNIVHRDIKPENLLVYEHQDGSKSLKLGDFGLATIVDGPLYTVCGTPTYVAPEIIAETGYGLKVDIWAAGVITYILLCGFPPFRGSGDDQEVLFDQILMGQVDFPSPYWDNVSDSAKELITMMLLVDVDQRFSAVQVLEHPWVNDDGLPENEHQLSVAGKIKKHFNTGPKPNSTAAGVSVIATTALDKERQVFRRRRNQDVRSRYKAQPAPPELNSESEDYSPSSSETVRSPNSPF
Procedure, shortened: as §1

| SMILES | dTm [1] [K] | dTm [2] [K] | dTm [3] [K] | dTm [4] [K] | dTm [5] [K] |
| --- | --- | --- | --- | --- | --- |
| Cc1ccc(C(=O)Nc2ccc(CN3CCN(C)CC3)c(C(F)(F)F)c2)cc1C#Cc1c[nH]c2ncnc(N3CCOCC3)c12 [Compound 1] | 8.76 | 1.18 | 0.00 | -0.11 | -0.0556 |
| O=C(Nc1ccc(F)cc1)C1(C(=O)Nc2cccc(-c3c[nH]c4ncnc(N5CCOCC5)c34)c2)CC1 [Compound 2] | 9.06 | 0.30 | -0.03 | -0.21 | 1.25 |
| Cc1cc(NC(=O)C2(C(=O)Nc3ccc(F)cc3)CC2)cc(-c2c[nH]c3ncnc(N4CCOCC4)c23)c1 [Compound 6] | 4.67 | 0.76 | -0.18 | -0.00237 | 3.01 |
| O=C(Nc1cccc(-c2c[nH]c3ncnc(N4CCOCC4)c23)c1)C1(C(=O)Nc2ccc(F)c(Br)c2F)CC1 [Compound 26] | 6.34 | 1.04 | 0.09 | -0.27 | 3.55 |
| Cc1cc(F)ccc1NC(=O)C1(C(=O)Nc2cccc(-c3c[nH]c4ncnc(N5CCOCC5)c34)c2)CC1 [Compound 24] | 5.49 | -0.0179 | 0.38 | -0.14 | -1.61 |
| CCSc1nc(NC)c2c(-c3cccc(NC(=O)Nc4cc(C(C)(C)C)nn4-c4ccc(C)cc4)c3)c[nH]c2n1 [Compound 32] | 5.52 | -0.26 | -4.54 | -1.34 | 0.67 |
| O=C(Nc1cccc(-c2c[nH]c3ncnc(N4CCOCC4)c23)c1)C1(C(=O)Nc2cccc3c2CCC3)CC1 [Compound 11] | 7.29 | -5.15 | -8.36 | -2.39 | 2.70 |
| CCc1ccc(NC(=O)C2(C(=O)Nc3cccc(-c4c[nH]c5ncnc(N6CCOCC6)c45)c3)CC2)cc1 [Compound 15] | 6.65 | 0.36 | -8.07 | 0.19 | 0.05 |
| COc1ccc(NC(=O)C2(C(=O)Nc3cccc(-c4c[nH]c5ncnc(N6CCOCC6)c45)c3)CC2)cc1 [Compound 16] | 7.75 | 0.15 | 0.0636 | 0.34 | -1.88 |
| COc1cc(NC(=O)C2(C(=O)Nc3cccc(-c4c[nH]c5ncnc(N6CCOCC6)c45)c3)CC2)ccc1F [Compound 21] | 10.73 | 0.09 | -0.18 | -0.0539 | 1.25 |
| Cc1ccc(-n2nc(C(C)(C)C)cc2NC(=O)Nc2cccc(-c3c[nH]c4nc(Cl)nc(N5CCOCC5)c34)c2)cc1 [Compound 30] | 11.59 | -0.47 | -11.52 | -0.84 | 2.36 |
| O=C(Nc1cccc(-c2c[nH]c3ncnc(N4CCOCC4)c23)c1)C1(C(=O)Nc2ccc(F)c(F)c2)CC1 [Compound 17] | 8.95 | 0.19 | 1.70 | 0.29 | 1.90 |
| CC(C)(C)c1cc(NC(=O)Nc2cccc(-c3c[nH]c4ncnc(N5CCOCC5)c34)c2)n(-c2ccc3ncccc3c2)n1 [Compound 28] | 19.59 | 0.70 | 1.86 | 0.13 | 3.53 |
| COc1cc(C(=O)N2CCOCC2)c(F)cc1Nc1nc(N(C)C)c2c(Cl)c[nH]c2n1 [Compound 36] | 8.96 | -0.72 | -1.01 | 0.22 | 2.05 |
